# US7405041B2, “Methods for regulating transcription by targeting quadruplex DNA” (Arizona Board of Regents on behalf of the University of …, priority 2002, dated 2008)
# What was measured:
# GAPDH RNA = experiment: Real-time reverse-transcription PCR gene expression in Colo-205 cells, GAPDH; format: cell-based; conditions: minimally cytotoxic doses
# Procedure: (§1) Cells were treated with telomestatin (interacts with the putative tetrad:heptad in HER-2/neu) and TmPyP4 (negative control) at various concentrations and times. Cytotoxicity studies using MTS were performed to determine a non-toxic or minimally toxic dose and duration of treatment. Cells were harvested after treatment for RNA extraction, and “target” versus “non-target” gene expression is measured by real-time reverse-transcription PCR according to established methods.
# (§2) Target genes included two known tetrad/heptad (T:H) forming genes, HER-2/neu and c-MYB. c-MYC was analyzed as a positive control, having a known chair quadruplex forming regulatory unit in the nuclease hypersensitive element of the P1 promoter. […]
# (§3) A panel of cell lines including SK-BR-3 breast cancer, BT-474 breast cancer, MCF-7 breast cancer, Colo-205 colon cancer, and HeLa cervical cancer were treated with the quadruplex interactive compound TmPyP4 to assess for the cytotoxicity of this agent against a panel of cell lines with various levels of expression of HER-2/neu, c-MYB, and c-MYC. At minimally cytotoxic doses, Colo-205 cells were analyzed for gene expression after treatment with TmPyP4 and using real-time reverse-transcription PCR.
# c-MYC RNA = experiment: Real-time reverse-transcription PCR gene expression in Colo-205 cells, c-MYC; format: cell-based; conditions: minimally cytotoxic doses
# Procedure: as §1, §2, §3
# HER-2/neu RNA = experiment: Real-time reverse-transcription PCR gene expression in Colo-205 cells, HER-2/neu; format: cell-based; conditions: minimally cytotoxic doses
# Procedure: as §1, §2, §3
# c-MYB RNA = experiment: Real-time reverse-transcription PCR gene expression in Colo-205 cells, c-MYB; format: cell-based; conditions: minimally cytotoxic doses
# Procedure: as §1, §2, §3
# [1] = test system: c-MYB nucleic acid (heptad:tetrad quadruplex); experiment: DNA polymerase arrest assay, c-MYB nucleic acid; format: biochemical; conditions: temperature gradient of 37° C. to 57° C., in the presence of potassium
# Source text: (§4) A polymerase arrest assay is useful for determining whether transcription is modulated by a candidate molecule and/or a nucleic acid binding protein. Such an assay includes a template nucleic acid, which often comprises a quadruplex forming sequence, and a primer nucleic acid which hybridizes to the template nucleic acid […] of the quadruplex-forming sequence. The primer is extended by a polymerase (e.g., Taq polymerase), which advances from the primer along the template nucleic acid. In this assay, a quadruplex structure can block or arrest the advance of the enzyme, leading to shorter transcription fragments. Also, the arrest assay may be conducted at a variety of temperatures, including 45° C. and 60° C., and at a variety of ion concentrations. An example of the Taq polymerase stop assay is described in Han, et al., Nucl. Acids Res. 27:537-542 (1999), which is a modification of that used by Weitzmann, et al., J. Biol. Chem. 271, 20958-20964 (1996). Briefly, a reaction mixture of template DNA (50 nM), Tris∘HCl (50 mM), MgCl2 (10 mM), DTT (0.5 mM), EDTA (0.1 mM), BSA (60 ng), and 5′-end-labeled quadruplex nucleic acid (˜18 nM) is heated to 90° C. for 5 minutes and allowed to cool to ambient temperature over 30 minutes. Taq Polymerase (1 μl) is added to the reaction mixture, and the reaction is maintained at a constant temperature for 30 minutes. […]
# B-actin RNA = experiment: Real-time reverse-transcription PCR gene expression in Colo-205 cells, B-actin; format: cell-based; conditions: minimally cytotoxic doses
# Procedure: as §1, §2, §3
# HER-2/neu quadruplex = experiment: DNA polymerase arrest assay, HER-2/neu promoter template; format: biochemical; conditions: temperature gradient of 37° C. to 57° C., in the presence of potassium
# Source text: as §4
# quadruplex DNA = conditions: stated as reason for use as negative control; cited from earlier work
Structure (SMILES),GAPDH RNA level (GAPDH RNA),c-MYC RNA level (c-MYC RNA),HER-2/neu RNA level (HER-2/neu RNA),c-MYB RNA level (c-MYB RNA),interaction with and stabilization of the c-MYB nucleic acid [1],B-actin RNA level (B-actin RNA),interaction with and stabilization of the HER-2/neu quadruplex (HER-2/neu quadruplex),interaction with quadruplex DNA (quadruplex DNA)
C[n+]1ccc(-c2c3nc(c(-c4cc[n+](C)cc4)c4ccc([nH]4)c(-c4cc[n+](C)cc4)c4ccc([nH]4)c(-c4cc[n+](C)cc4)c4nc2C=C4)C=C3)cc1 [TMPyP4],not a reduction,reduction,not a reduction,reduction,interacted with and stabilized the c-MYB nucleic acid,not a reduction,no apparent change in the stability of the HER-2/neu quadruplex,
C[n+]1ccccc1-c1c2nc(c(-c3cccc[n+]3C)c3ccc([nH]3)c(-c3cccc[n+]3C)c3ccc([nH]3)c(-c3cccc[n+]3C)c3nc1C=C3)C=C2 [TmPyP2],,,,,,,,interacts only weakly with quadruplex DNA
